Data taken from ChEMBL document CHEMBL3044804, “Morphogenetic and Toxic Activity of Seven Novel 2, 2-Dimethylchromene Derivatives on Larvae of Oncopeltus fasciatus and Pieris brassicae” (1991).

Legend:
Format in all cases: functional
Oncopeltus fasciatus [1] = assay: Morphogenetic activity against fourth-instar nymphs of Oncopeltus fasciatus assessed as occurrence of precocious metamorphosis at 3 ug/cm'2
Oncopeltus fasciatus [2] = assay: Morphogenetic activity against third-instar nymphs of Oncopeltus fasciatus assessed as occurrence of precocious metamorphosis at 3 ug/cm'2
Pieris brassicae = assay: Insecticidal activity against fourth-instar larvae of Pieris brassicae assessed as mortality per insect after 5 days
Oncopeltus fasciatus [3] = assay: Morphogenetic activity against second-instar nymphs of Oncopeltus fasciatus assessed as mortality at 3 ug/cm'2
Oncopeltus fasciatus [4] = assay: Morphogenetic activity against fifth-instar nymphs of Oncopeltus fasciatus assessed as occurrence of precocious metamorphosis at 3 ug/cm'2

Row | Compound | Activity (Oncopeltus fasciatus [1]) | Activity (Oncopeltus fasciatus [2]) | LD50 (Pieris brassicae) | Activity (Oncopeltus fasciatus [3]) | Activity (Oncopeltus fasciatus [4])
1 | CCOc1c(OC)cc2c(c1C)C=CC(C)(C)O2 | 37.5% | 0% | 71 µg | 52.5% | –
2 | COc1c(OC2CCCC2)cc2c(c1C)C=CC(C)(C)O2 | – | 0% | 22.4 µg | 52.5% | –
3 | CCC(C)Oc1cc2c(c(C)c1OC)C=CC(C)(C)O2 (configuration not stated) | 0% | 0% | 20 µg | 47.5% | 37.5%
4 | C#CCOc1cc2c(c(C)c1OC)C=CC(C)(C)O2 | 0% | 0% | 29.9 µg | 30% | 20%
5 | CCCOc1cc2c(c(C)c1OC)C=CC(C)(C)O2 | 80% | 0% | 32.7 µg | 15% | 0%
6 | CCOc1cc2c(cc1OC)C=CC(C)(C)O2 | 5% | 60% | 24.5 µg | 20% | 15%
7 | COc1cc2c(c(C)c1OC)C=CC(C)(C)O2 | 45% | 25% | 96.5 µg | 30% | 0%
8 | CCOc1cc2c(c(C)c1OC)C=CC(C)(C)O2 | 95% | 0% | 88.3 µg | 5% | 0%
9 | COc1cc2c(cc1OC)OC(C)(C)C=C2 [PROCOCENE II] | 27.5% | 22.5% | 39.5 µg | 45% | 5%
